Patent publication US11053223B2, “Phenoxyquinazoline compounds and their use in treating cancer” (AstraZeneca AB, priority 2017, dated 2021)

Experiments:
[1] = system: Ba/F3-Parental; assay: MTS viability assay, Ba/F3 parental cells; type: cell-based; details: Mus musculus, BaF3, 72 h, top concentration 10 uM, mean of at least 3 biological replicates
Description: (§1) The impact of KIT inhibitors on the viability of Ba/F3 expressing KIT mutations was determined using an MTS assay, which is a colorimetric sensitive quantification of viable cells in proliferation and cytotoxicity assay. In the MTS assay […] in the presence of phenazine methosulfate (PMS) was used. The mitochondrial reductase forms a formazan which absorbs at 490 nm. Cells in exponential growth phase were added to 384-well plates containing pre-dispensed compounds (top concentration 10 uM, 10-point curve). The cells were incubated for 72 h at 37° C. and 5% CO2. After 72 h, MTS reagent was added to the plates and incubated an additional 2 h at 37° C. before measuring the absorbance at 490 nm on a Tecan microplate reader using Magellan Software (Tecan Trading AG, Switzerland).
(§2) The absorbances were normalized as follows: (Read-Day0 control)/(Day3 control-Day0 control)*100. The GI50 values were generated using Genedata Screener software (Genedata; Lexington, Mass.). A non-linear regression with constraints for top and bottom between 100 and −100 and no constraint on the Hill coefficient was used to generate GI50 values. The GI50 values reported below are the calculated mean result of at least 3 biological replicates across all the cell lines tested.

[2] = target: T1, KIT exon11 deletion (557-558) and secondary mutation T670I (Homo sapiens, UniProt P10721, DEL557-558/T670I); assay: MTS viability assay, Ba/F3 expressing KIT exon11 deletion (557-558) and T670I; type: cell-based; details: 72 h, KIT exon11 deletion (557-558) plus secondary mutation, mean of at least 3 biological replicates
T1 construct: expressed in transfected cells; host or cells: Ba/F3 cells infected with lentivirus (pLVX-IRES Puro vector)
T1 sequence (P10721 with tags, fused parts or gaps DEL557-558/T670I): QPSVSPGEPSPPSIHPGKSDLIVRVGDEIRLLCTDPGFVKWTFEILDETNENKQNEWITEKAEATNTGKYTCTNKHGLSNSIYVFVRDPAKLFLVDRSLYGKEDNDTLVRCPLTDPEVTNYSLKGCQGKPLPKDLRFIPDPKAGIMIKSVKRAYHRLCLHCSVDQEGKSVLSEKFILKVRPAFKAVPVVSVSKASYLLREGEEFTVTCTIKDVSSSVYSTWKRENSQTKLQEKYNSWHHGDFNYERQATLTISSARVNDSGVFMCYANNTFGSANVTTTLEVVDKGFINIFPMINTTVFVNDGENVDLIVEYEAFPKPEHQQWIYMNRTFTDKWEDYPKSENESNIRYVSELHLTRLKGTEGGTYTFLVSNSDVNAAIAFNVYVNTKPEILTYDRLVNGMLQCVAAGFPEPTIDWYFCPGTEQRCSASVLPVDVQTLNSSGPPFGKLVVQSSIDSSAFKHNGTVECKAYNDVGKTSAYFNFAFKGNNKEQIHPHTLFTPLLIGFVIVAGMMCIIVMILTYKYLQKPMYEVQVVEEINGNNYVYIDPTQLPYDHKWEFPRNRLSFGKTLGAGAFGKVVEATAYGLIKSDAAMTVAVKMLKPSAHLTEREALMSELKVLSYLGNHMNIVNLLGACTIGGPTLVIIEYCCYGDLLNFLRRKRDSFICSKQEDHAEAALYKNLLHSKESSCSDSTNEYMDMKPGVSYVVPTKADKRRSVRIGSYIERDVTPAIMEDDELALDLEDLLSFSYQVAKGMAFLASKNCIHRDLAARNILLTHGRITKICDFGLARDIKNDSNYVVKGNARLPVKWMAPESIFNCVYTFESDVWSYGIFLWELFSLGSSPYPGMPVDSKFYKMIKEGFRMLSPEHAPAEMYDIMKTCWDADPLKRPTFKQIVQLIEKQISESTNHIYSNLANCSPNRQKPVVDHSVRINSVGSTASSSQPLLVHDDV
Description: (§3) 3 different KIT cDNA encoding for the exon11 deletion (557-558) and a secondary mutation (V654A, T670I, D816H) from Genescript were cloned into pLVX-IRES Puro vector(Clontech). Lentiviral particles were generated using Trans-lentiviral ORF packaging kit (TLP 5918) from Thermo Scientific (Waltham, Mass.) in HEK293-T/17 cells, according to the manufacturer's instructions.
(§4) Exponentially grown Ba/F3 cells (1.5×10^6 cells in 2 ml medium) were infected with 2 ml of viral suspension in a 6-well plate in the presence of mIL-3 (10 ng/ml) and polybrene (4 μg/ml) (Sigma Aldrich, St. Louis, Mo.) and incubated for 24 h. After 24 h, the cells were centrifuged and the viral supernatant was discarded. The cells were then re-suspended in fresh medium and allowed to recover for another day. The following day, the cells were seeded in complete medium without murine IL-3. After a week or two, when cells started proliferating, a selection was carried out by gradually increasing the puromycin concentration to 0.5 ug/ml. Once the cells were growing exponentially in puromycin, batches of cells were frozen down for banking.
as §1, §2

[3] = target: T2, KIT exon11 deletion (557-558) and secondary mutation V654A (Homo sapiens, UniProt P10721, DEL557-558/V654A); assay: MTS viability assay, Ba/F3 expressing KIT exon11 deletion (557-558) and V654A; type: cell-based; details: 72 h, KIT exon11 deletion (557-558) plus secondary mutation, mean of at least 3 biological replicates
T2 construct: expressed in transfected cells; host or cells: Ba/F3 cells infected with lentivirus (pLVX-IRES Puro vector)
T2 sequence (P10721 with tags, fused parts or gaps DEL557-558/V654A): as the sequence (P10721 with tags, fused parts or gaps DEL557-558/T670I) above, with V627A, I643T counted along it
Description: as §3, §4, §1, §2

[4] = target: T3, KIT exon11 deletion (557-558) and secondary mutation D816H (Homo sapiens, UniProt P10721, D816H/DEL557-558); assay: MTS viability assay, Ba/F3 expressing KIT exon11 deletion (557-558) and D816H; type: cell-based; details: 72 h, KIT exon11 deletion (557-558) plus secondary mutation, mean of at least 3 biological replicates
T3 construct: expressed in transfected cells; host or cells: Ba/F3 cells infected with lentivirus (pLVX-IRES Puro vector)
T3 sequence (P10721 with tags, fused parts or gaps DEL557-558/D816H): as the sequence (P10721 with tags, fused parts or gaps DEL557-558/T670I) above, with I643T, D789H counted along it
Description: as §3, §4, §1, §2

[5] = system: Tel-KDR (KDR K790-V1356 fused to the C-terminus of Tel); assay: MTS viability assay, Ba/F3 expressing Tel-KDR; type: cell-based; details: 72 h, Ba/F3 cells, mean of at least 3 biological replicates
Description: Tel-KDR myc was cloned into pBCS2004, a retroviral vector, wherein KDR (K790-V1356) is fused to the C-terminus of Tel. Retroviral particles were generated in HEK293T cells. The Tel-KDR plasmid was co-transfected with helper viruses (gag-Pol and VSV-G) into HEK293T cells using calcium phosphate and the virus was harvested 72 h after transfection.
as §4, §1, §2

[6] = system: GIST; details: PhIII study, patients with GIST after relapse to imatinib and sunitinib; cited from earlier work
[7] = system: GIST; details: within 2 years; cited from earlier work

| SMILES | GI50 [5] | GI50 [1] | Ba/F3-T6701 GI50 [2] | Ba/F3-V654A GI50 [3] | Ba/F3-D816H GI50 [4] | median PFS [6] | patients developed resistance [7] |
| --- | --- | --- | --- | --- | --- | --- | --- |
| COc1cc2ncnc(Oc3ccc(NC(=O)Cn4cc(C(C)C)nn4)cc3)c2cc1OC [Example 1, N-(4-((6,7-Dimethoxyquinazolin-4-yl)oxy)phenyl)-2-(4-isopropyl-1H-1,2,3-triazol-1-yl)acetamide] | 600 nM | ≥ 10 µM | 0.017 µM | 0.003 µM | 0.019 µM |  |  |
| COc1cc2ncnc(Oc3ccc(NC(=O)Cn4cc(C5CC5)nn4)cc3)c2cc1OC [Example 2, 2-(4-Cyclopropyl-1H-1,2,3-triazol-1-yl)-N-(4-((6,7-dimethoxyquinazolin-4-yl)oxy)phenyl)acetamide] | 1930 nM | ≥ 10 µM | 0.068 µM | 0.004 µM | 0.095 µM |  |  |
| COc1cc(Oc2ncnc3cc(OC)c(OC)cc23)ccc1NC(=O)Cn1cc(C(C)C)nn1 [Example 3, N-(4-((6,7-Dimethoxyquinazolin-4-yl)oxy)-2-methoxyphenyl)-2-(4-isopropyl-1H-1,2,3-triazol-1-yl)acetamide] | 1080 nM | ≥ 10 µM | 0.023 µM | 0.013 µM | 0.041 µM |  |  |
| COc1cc2ncnc(Oc3ccc(NC(=O)Cn4cc(C(C)C)nn4)cc3F)c2cc1OC [Example 4, N-(4-((6,7-Dimethoxyquinazolin-4-yl)oxy)-3-fluorophenyl)-2-(4-isopropyl-1H-1,2,3-triazol-1-yl)acetamide] | 142 nM | ≥ 10 µM | 0.008 µM | 0.001 µM | 0.015 µM |  |  |
| COCCOc1cc2ncnc(Oc3ccc(NC(=O)Cn4cc(C(C)C)nn4)cc3)c2cc1OC [Example 5, 2-(4-Isopropyl-1H-1,2,3-triazol-1-yl)-N-(4-((6-methoxy-7-(2-methoxyethoxy)quinazolin-4-yl)oxy)phenyl)acetamide] | 289 nM | ≥ 10 µM | 0.011 µM | 0.008 µM | 0.015 µM |  |  |
| COc1cc2c(Oc3ccc(NC(=O)Cn4cc(C(C)C)nn4)cc3)ncnc2cc1OCCN1CCCC1 [Example 6, 2-(4-Isopropyl-1H-1,2,3-triazol-1-yl)-N-(4-((6-methoxy-7-(2-(pyrrolidin-1-yl)ethoxy)quinazolin-4-yl)oxy)phenyl)acetamide] | 2770 nM | ≥ 10 µM | 0.072 µM | 0.022 µM | 0.055 µM |  |  |
| COc1cc2c(Oc3ccc(NC(=O)Cn4cc(C(C)C)nn4)cc3)ncnc2cc1OCCN(C)C [Example 7, N-(4-((7-(2-(Dimethylamino)ethoxy)-6-methoxyquinazolin-4-yl)oxy)phenyl)-2-(4-isopropyl-1H-1,2,3-triazol-1-yl)acetamide] | 2520 nM | ≥ 10 µM | 0.057 µM | 0.015 µM | 0.041 µM |  |  |
| COc1cc2c(Oc3ccc(NC(=O)Cn4cc(C(C)C)nn4)cc3)ncnc2cc1OCCO [Example 8, N-(4-((7-(2-Hydroxyethoxy)-6-methoxyquinazolin-4-yl)oxy)phenyl)-2-(4-isopropyl-1H-1,2,3-triazol-1-yl)acetamide] | 1160 nM | ≥ 10 µM | 0.055 µM | 0.025 µM | 0.075 µM |  |  |
| CNC(=O)c1cc(Oc2ccc(NC(=O)Nc3ccc(Cl)c(C(F)(F)F)c3)c(F)c2)ccn1 [Regorafenib] |  |  |  |  |  | 4.8 months |  |
| Cc1ccc(NC(=O)c2ccc(CN3CCN(C)CC3)cc2)cc1Nc1nccc(-c2cccnc2)n1 [imatinib, Imatinib] |  |  |  |  |  |  | 50% |

The next lines start with results.

| GI50 [5] | SMILES | GI50 [1] | Ba/F3-T6701 GI50 [2] | Ba/F3-V654A GI50 [3] | Ba/F3-D816H GI50 [4] | median PFS [6] | patients developed resistance [7] |
| --- | --- | --- | --- | --- | --- | --- | --- |
| 840 nM | COc1cc2c(Oc3ccc(NC(=O)Cn4cc(C(C)C)nn4)cc3)ncnc2cc1O[C@@H]1CCOC1 (single isomer, unassigned) [Example 12] | ≥ 10 µM | 0.023 µM | 0.011 µM | 0.022 µM |  |  |
| 577 nM | COc1cc2c(Oc3ccc(NC(=O)Cn4cc(C(C)C)nn4)cc3)ncnc2cc1O[C@H]1CCOC1 (single isomer, unassigned) [Example 13] | ≥ 10 µM | 0.03 µM | 0.013 µM | 0.024 µM |  |  |
| 2110 nM | COc1cc2c(Oc3ccc(NC(=O)Cn4cc(C(C)C)nn4)cc3)ncnc2cc1OC1CCOCC1 [Example 9, 2-(4-Isopropyl-1H-1,2,3-triazol-1-yl)-N-(4-((6-methoxy-7-((tetrahydro-2H-pyran-4-yl)oxy)quinazolin-4-yl)oxy)phenyl)acetamide] | ≥ 10 µM | 0.077 µM | 0.017 µM | 0.046 µM |  |  |
| 1840 nM | COc1cc2c(Oc3ccc(NC(=O)Cn4cc(C(C)C)nn4)cc3)ncnc2cc1OC1COC1 [Example 10, 2-(4-Isopropyl-1H-1,2,3-triazol-1-yl)-N-(4-((6-methoxy-7-(oxetan-3-yloxy)quinazolin-4-yl)oxy)phenyl)acetamide] | ≥ 10 µM | 0.074 µM | 0.018 µM | 0.051 µM |  |  |
| 903 nM | COc1cc2c(Oc3ccc(NC(=O)Cn4cc(C(C)C)nn4)cc3)ncnc2cc1OC(C)C [Example 11, N-[4-(7-Isopropoxy-6-methoxy-quinazolin-4-yl)oxyphenyl]-2-(4-isopropyl-1H-1,2,3-triazol-1-yl)acetamide] | ≥ 10 µM | 0.057 µM | 0.016 µM | 0.028 µM |  |  |
